Data as given in patent US20250345426A1, “METHODS FOR MAKING AND USING THERAPEUTIC CELLS” (THE REGENTS OF THE UNIVERSITY OF CALIFORNIA, priority 2022, published 2025).

Tests used:
[1] = system: Raji target cells; assay: 24-hr lysis assay of inhibitor-treated rituximab CD20 CAR-T cells against Raji; assay type: cell-based; details: three E:T ratios, vs vehicle-treated
Description: FIG. 1A-G. Pharmacological inhibition of PI3K/AKT pathway modulates antigen-independent CAR-T cell activation. (A) Table of pharmacological inhibitors used during ex vivo expansion of rituximab CAR-T cells (left). Simplified schematic of the PI3K/AKT signaling axis where black arrows represent activation (right). (B) Activation marker expression by CAR^+ T cells in the absence of antigen stimulation after 5 days of pharmacological modulation. Data bars indicate the means of technical triplicates±1 S.D. The bars in FIG. 1B represent data from, untreated, vehicle, CAL-101, AZD5363, Rapamycin, MYCi975, and Betulin, respectively, from left to right. (C) TNF-α production CAR^+ T cells in the absence of antigen stimulation as quantified by intracellular flow cytometry. Data bars indicate the means of technical triplicates±1 S.D. The bars in FIG. 1B and FIG. 1C represent data from, untreated, vehicle, CAL-101, AZD5363, Rapamycin, MYCi975, and Betulin, respectively, from left to right. (D) Proliferation of CAR^+ T cells stained with CellTrace Violet (CTV) dye was assayed after a 4-day culture in the absence of target cells or exogenous cytokines. Data shown in the histogram correspond to one of technical triplicates shown in the bar graph. The bars FIG. 1D represent data from, EGFRt, untreated, vehicle, CAL-101, AZD5363, Rapamycin, MYCi975, and Betulin, respectively, from left to right. (E) % distribution of T-cell subtypes in CAR^+ T cells after 5 days of pharmacological modulation. Data bars indicate the means of technical triplicates±1 S.D. (F) Rituximab CAR-T cell fold expansion after 6 days of inhibitor culture was tracked. […] Statistical significance in panels B, C, and D was determined by two-tailed Student's t test with Sidak correction for multiple comparisons. * p<0.05, ** p<0.01, *** p<0.001, n.s. not statistically significant.
Cytotoxicity assay with Raji cells. […] Remaining target cells were quantified by MACSQuant VYB flow cytometer 24-hr post co-incubation.

[2] = system: Raji target cells; assay: 24-hr lysis assay of inhibitor-treated Leu16 CAR-T cells against Raji; assay type: cell-based; details: three E:T ratios, vs vehicle-treated
Description: FIG. 4A-C. Characterization of pharmacologically treated Leu16 CAR-T cells in vitro. (A) TNF-α production CAR+ T cells in the absence of antigen stimulation as quantified by intracellular flow cytometry. Data bars indicate the means of technical triplicates ±1 S.D. ns not statistically significant. (B) Leu16 CAR-T cell fold expansion after 6 days of inhibitor culture was tracked. The bars in FIGS. 4A and 4B, represent data from, EGFRt, Leu16-28z (vehicle), Leu16-28z (MYCi975), Leu16-28z (Betulin), and Leu16-28z (Rapamycin), respectively, from left to right. (C) A 24-hr lysis assay of CAR-T cells against Raji target cells at three effector-to-target (E:T) ratios. Data bars indicate the means of technical triplicates±1 S.D. Percent lysis was normalized to cell counts in target-only wells.
Cytotoxicity assay with Raji cells. Raji cells were seeded at 2×10^5 cells/well in 96-well U-bottom plate and coincubated with CAR^+ T cells at 1:1, 3.33:1, and 10:1 E:T ratios. Untransduced T cells were added to wells as needed to normalize for differing transduction efficiencies and ensure the total number of T cells per well was consistent throughout. Remaining target cells were quantified by MACSQuant VYB flow cytometer 24-hr post co-incubation.

[3] = system: Raji lymphoma; assay: Raji lymphoma model in NSG mice treated with inhibitor-treated Leu16 CAR-T cells; assay type: in vivo; details: Raji i.v., two doses of inhibitor-treated Leu16 CAR-T cells, vs vehicle-treated
Description: FIG. 3A-G. Pharmacological modulation of Leu16 CAR-T cells modestly dampens tonic signaling while enhancing anti-tumor efficacy. (A) Pictorial representation of the correlation between tonic signaling-modulated rituximab CAR-T cells and in vivo anti-tumor efficacy. (B) Pictorial representation of pharmacological modulation strategy aimed to either increase or decrease Leu16 CAR tonic signaling; c-MYC (MYCi975) and SREBP (betulin) inhibition increased tonic signaling whereas mTORC1 (rapamycin) inhibition decreased tonic signaling in rituximab CAR-T cells. (C) % distribution of T-cell subtypes in CAR^+ T cells after 6 days of pharmacological modulation (left) and Tn/scm enrichment (right). The bars in FIG. 3C, right graph, represent data from, EGFRt, Leu16-28z (vehicle), Leu16-28z (MYCi975), Leu16-28z (Betulin), and Leu16-28z (Rapamycin), respectively, from left to right. (D) Activation and exhaustion marker expression by CAR^+ T cells in the absence of antigen stimulation after 6 days of pharmacological modulation. […] (F) Tumor signal (in photons/sec/cm2/sr) in individual animals as quantified by bioluminescence imaging. […]
In vivo studies. […] Tumor progression/regression was monitored with an IVIS Illumina III LT Imaging System (PerkinElmer). […]

C=C(C)[C@@H]1CC[C@]2(CO)CC[C@]3(C)[C@H](CC[C@@H]4[C@@]5(C)CC[C@H](O)C(C)(C)[C@@H]5CC[C@]43C)[C@@H]12 [betulin, Betulin]
lysis of Raji tumor cells [1]: clustered together | lysis of Raji tumor cells [2]: clustered together | in vivo functionality: tumor control and survival [3]: prolonged tumor control and survival

MYCi975
lysis of Raji tumor cells [1]: clustered together | lysis of Raji tumor cells [2]: clustered together
